Measured values from patent publication US12612412B2, “Antiviral heterocyclic compounds” (Enanta Pharmaceuticals, Inc., priority 2021, dated 2026).
Like-named read-outs stand apart in the source and are kept apart here.

What was measured:
[1] = system: HMPV clinical isolate TN/1501/A1; test: HMPV antiviral assay Method-B (clinical isolate TN/1501/A1 in LLC-MK2 cells, ATP-Lite readout); assay type: cell-based, Human metapneumovirus (HMPV); settings: human metapneumovirus, LLC-MK2, 144 h, hMPV WT1501 (clinical isolate TN/1501/A1), 6 days
Procedure, shortened: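 LLC-MK2 cells infected in suspension with TN/1501/A1 at MOI 0.014 in serum-free medium with 2 μg/mL TPCK-trypsin (final), incubated 6 days at 37° C. Compounds tested in duplicate, 10-point 3-fold dilutions from 10 μM. Cell health read by ATP-Lite luminescence, normalised to virus-only and cells-only controls; EC50 by four-parameter logistic fit.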

[2] = system: genotype A, "Long" strain RSV; test: RSV-A assay (CPE protection in Hep-2 cells, ATPlite readout); assay type: cell-based, Human respiratory syncytial virus (HRSV); settings: MOI 0.1, CPE protection
Procedure, shortened: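 Protection from RSV-induced cytopathic effect measured by ATP content (ATPlite) after 5-day culture. Infection used genotype A Long virus at MOI 0.1 on 8,000 Hep-2 cells per well, with compound serially diluted 2-fold; values are EC50.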

[3] = human respiratory syncytial virus, genotype A “Long” strain RSV, read-out: Human RSV-A (“Long”)
[4] = human respiratory syncytial virus, RSV-A Long strain, read-out: Human RSV-A (“Long”) EC50

SMILES | EC50 [1] [nM] | EC50 [2, 3] [nM] | EC50 [2, 4] [nM] | EC50 ([2]; genotype A “Long” strain RSV, read-out: Human RSV-A (“Long”)) [nM]
COc1cc(C(=O)NC[C@](O)(c2cc3c(c(-c4ccc(F)cc4)n2)OC[C@]3(C)C(N)=O)C2CC2)cc2sc(C)nc12 [Example 728] | < 500 | < 200 |  | 
[2H]C([2H])([2H])[C@](O)(CNC(=O)c1cc(OC(F)F)c2ncc(C)cc2c1)c1cc2c(c(-c3ccc(F)cc3)n1)OC[C@]2(C)C(N)=O [Example 647] | > 500 | < 200 |  | 
COc1cc(C(=O)NC[C@](O)(c2cc3c(c(-c4ccc5c(c4)OC(F)(F)O5)n2)OC[C@]3(C)C(N)=O)C2(F)CC2)cc2cc(C3CC3)nn12 [Example 716] | < 500 | < 200 |  | 
COc1cc(C(=O)NC[C@](O)(c2cc3c(c(-c4ccc(Cl)c(F)c4F)n2)OC[C@]3(C)C(N)=O)C2CC2)cc2cn(C3(F)CC3)nc12 [Example 685] | < 500 | < 200 |  | 
CC[C@]1(C(N)=O)COc2c1cc([C@@](O)(CNC(=O)c1cc(OC)c3nn(C4CC4)cc3c1)C(F)(F)F)nc2-c1ccc(F)cc1 [Example 573] | < 500 |  |  | < 200
COc1cc(C(=O)NC[C@](O)(c2cc3c(c(-c4cc(Cl)c(F)cc4F)n2)OC[C@]3(C)C(N)=O)C(F)(F)F)cc2cn(C(F)F)nc12 [Example 614] | > 500 | < 200 |  | 
COc1cc(C(=O)NC[C@](O)(c2cc3c(c(-c4cc(F)c(F)cc4Cl)n2)OC[C@]3(C)C(N)=O)C(F)(F)F)cc2cn(C3CC3)nc12 [Example 654] | < 500 | < 200 |  | 
COc1cc(C(=O)NC[C@](O)(c2cc3c(c(-c4ccc(F)c(F)c4Cl)n2)OC[C@]3(C)C(N)=O)C(F)(F)F)cc2cn(C(F)F)nc12 [Example 776] | < 500 | < 200 |  | 
Cc1cnc2c(Cl)cc(C(=O)NC[C@](O)(c3cc4c(c(-c5ccc(C(F)(F)F)cc5)n3)OC[C@]4(C)C(N)=O)C3CC3)cc2c1 [Example 798] | < 500 | < 200 |  | 
COc1cc(C(=O)NC[C@](O)(c2cc3c(c(-c4csc5c(F)cccc45)n2)OC[C@]3(C)C(N)=O)C(F)(F)F)cc2cn(C(F)F)nc12 [Example 600] | < 500 | < 200 |  | 
COc1cc(C(=O)NC[C@](O)(c2cc3c(c(-c4cnc(Cl)c(Cl)c4)n2)OC[C@]3(C)C(N)=O)C(F)(F)F)cc2cn(C3CC3)nc12 [Example 587] | > 500 | < 200 |  | 
COc1cc(C(=O)NC[C@](O)(c2cc3c(c(-c4ccc(C(F)(F)F)c(Cl)c4)n2)OC[C@]3(C)C(N)=O)C(F)(F)F)cc2cn(C3CC3)nc12 [Example 579] | > 500 | < 200 |  | 
C[C@]1(C(N)=O)COc2c1cc([C@@](O)(CNC(=O)c1cc(F)c3nc(C4CC4)cn3c1)C(F)(F)F)nc2-c1ccc2c(c1)OC(F)(F)O2 [Example 548] | < 500 | < 200 |  | 
COc1cc(C(=O)NC[C@](O)(c2cc3c(c(-c4cc(F)c(F)c(Cl)c4)n2)OC[C@]3(C)C(N)=O)C2CC2)cc2cn(C3CC3)nc12 [Example 787] | < 500 | < 200 |  | 
C[C@]1(C(N)=O)COc2c1cc([C@@](O)(CNC(=O)c1cc(Cl)c3nn(C4CC4)cc3c1)C1CC1)nc2-c1cc(Cl)c(F)cc1F [Example 668] | < 500 | < 200 |  | 
Cc1cnc2c(OC(F)F)cc(C(=O)NC[C@](O)(c3cc4c(c(-c5ccc(F)cc5)n3)OC[C@]4(C)C(N)=O)C3CC3)cc2c1 [Example 495] | < 500 | < 200 |  | 
COc1cc(C(=O)NC[C@](O)(c2cc3c(c(-c4ccc(F)cc4Cl)n2)OC[C@]3(C)C(N)=O)C(F)(F)F)cc2cc(C3CC3)nn12 [Example 510] | < 500 | < 200 |  | 
C[C@]1(C(N)=O)COc2c1cc([C@@](O)(CNC(=O)c1cc(Cl)c3nn(C4CC4)cc3c1)C1(F)CC1)nc2-c1cc(Cl)c(F)cc1F [Example 759] | < 500 | < 200 |  | 
C[C@]1(C(N)=O)COc2c1cc([C@@](O)(CNC(=O)c1ccn3nc(C4CC4)cc3c1)C(F)(F)F)nc2-c1ccc2c(c1)OC(F)(F)O2 [Example 592] | < 500 | < 200 |  | 
Cc1cnc2c(OC(F)F)cc(C(=O)NC[C@](O)(c3cc4c(c(-c5ccc(F)c(F)c5Cl)n3)OC[C@]4(C)C(N)=O)C(F)(F)F)cc2c1 [Example 781] | < 500 | < 200 |  | 
C[C@]1(C(N)=O)COc2c1cc([C@@](O)(CNC(=O)c1cc(F)c3nn(C(F)F)cc3c1)C1CC1)nc2-c1ccc(F)c(Cl)c1F [Example 571] | < 500 | < 200 |  | 
COc1cc(C(=O)NC[C@](O)(c2cc3c(c(-c4cc(F)c(F)c(Cl)c4)n2)OC[C@]3(C)C(N)=O)C2CC2)cc2cc(Br)cnc12 [Example 789] | < 500 | < 200 |  | 
COc1cc(C(=O)NC[C@](O)(c2cc3c(c(-c4ccc(F)cc4)n2)OC[C@]3(C)C(N)=O)C2(F)CC2)cc2cc(C3CC3)nn12 [Example 706] | < 500 | < 200 |  | 
Cc1cnc2c(Cl)cc(C(=O)NC[C@](O)(c3cc4c(c(-c5ccc(F)cc5)n3)OC[C@]4(C)C(N)=O)C3CC3)cc2c1 [Example 740] | < 500 | < 200 |  | 
Cc1cnc2c(OC(F)F)cc(C(=O)NC[C@](O)(c3cc4c(c(-c5ccc(F)c(C(F)(F)F)c5)n3)OC[C@]4(C)C(N)=O)C3(F)CC3)cc2c1 [Example 750] | < 500 | < 200 |  | 
COc1cc(C(=O)NC[C@](O)(c2cc3c(c(-c4ccc(Cl)cc4F)n2)OC[C@]3(C)C(N)=O)C2CC2)cc2cn(C3(F)CC3)nc12 [Example 840] | < 500 |  | < 200 | 
COc1cc(C(=O)NC[C@](O)(c2cc3c(c(-c4ccc(F)cc4)n2)OC[C@]3(C)C(N)=O)C2CCCC2)cc2cn(C3CC3)nc12 [Example 644] | > 500 | > 200 |  | 
COc1cc(C(=O)NC[C@](O)(c2cc3c(c(-c4ccc5c(c4)OC(F)(F)O5)n2)OC[C@]3(C)C(N)=O)C(F)(F)F)cc2cn(C3CC3)nc12 [Example 893] | < 500 |  | < 200 | 
COc1cc(C(=O)NCC(O)(c2cc3c(c(-c4ccc(F)c(OC(F)F)c4)n2)OC[C@]3(C)C(N)=O)C(F)(F)F)cc2cn(C3CC3)nc12 (stereo partly shown) [Example 909] | > 500 |  | < 200 | 

The next lines start with the values.

EC50 [1] [nM] | EC50 [2, 3] [nM] | EC50 [2, 4] [nM] | EC50 ([2]; genotype A “Long” strain RSV, read-out: Human RSV-A (“Long”)) [nM] | SMILES
> 500 |  | > 200 |  | COc1cc(C(=O)NC[C@](O)(c2cc3c(c(-c4ccc5c(c4)CC(=O)N5)n2)OC[C@]3(C)C(N)=O)C(F)(F)F)cc2cn(C3CC3)nc12 [Example 971]
> 500 |  | < 200 |  | COc1cc(C(=O)NC[C@](O)(c2cc3c(c(-c4ccc(F)cc4)n2)OC[C@]3(C(N)=O)C(F)F)C2CC2)cc2cc(Cl)c(C)nc12 [Example 1030]
< 500 |  | < 200 |  | COc1cc(C(=O)NC[C@](O)(c2cc3c(c(-c4ccc(F)cc4)n2)OC[C@]3(CF)C(N)=O)C2CC2)cc2cc(Cl)c(C)nc12 [Example 1056]
< 500 |  | < 200 |  | COc1cc(C(=O)NC[C@](O)(c2cc3c(c(-c4cc(Cl)ccc4F)n2)OC[C@]3(C)C(N)=O)C2CC2)cc2cc(Br)c(C)nc12 [Example 1189]
< 500 |  | < 200 |  | COc1cc(C(=O)NC[C@](O)(c2cc3c(c(-c4ccc5c(c4)OC(F)(F)O5)n2)OC[C@@]3(C(N)=O)C(F)F)C(F)(F)F)cc2cc(Cl)c(C)nc12 [Example 1037]
< 500 |  | < 200 |  | COc1cc(C(=O)NC[C@](O)(c2cc3c(c(-c4ccc(F)c(Cl)c4)n2)OC[C@@]3(C(N)=O)C(F)F)C(F)(F)F)cc2cc(Cl)c(C)nc12 [Example 1005]
> 500 |  | > 200 |  | COc1cc(C(=O)NC[C@](O)(c2cc3c(c(-c4csc5c(Cl)cccc45)n2)OC[C@]3(C)C(N)=O)C(F)(F)F)cc2cn(C3CC3)nc12 [Example 937]
> 500 |  | > 200 |  | COc1ccc(-c2nc([C@](O)(CNC(=O)c3cc(OC)c4nn(C5CC5)cc4c3)C(F)(F)F)cc3c2OC[C@]3(C)C(N)=O)cc1 [Example 923]
> 500 |  | > 200 |  | COc1cc(C(=O)NC[C@](O)(c2cc3c(c(-c4ccc(F)cc4)n2)OC[C@@]3(CF)C(N)=O)C2CC2)cc2cc(Cl)c(C)nc12 [Example 1055]
> 500 |  | < 200 |  | COc1cc(C(=O)NC[C@](O)(c2cc3c(c(-c4ccc(F)cc4)n2)OC[C@]3(C)C(N)=O)C(F)(F)F)cc2cc(Br)c(Cl)nc12 [Example 1090]
< 500 |  | < 200 |  | COc1cc(C(=O)NC[C@](O)(c2cc3c(c(-c4cccc(Br)c4F)n2)OC[C@]3(C)C(N)=O)C2CC2)cc2cn(C3(F)CC3)nc12 [Example 1087]
> 500 |  | > 200 |  | COc1cc(C(=O)NC[C@](O)(c2cc3c(c(-c4ccc(F)c(Cl)c4)n2)OC[C@]3(C(N)=O)C(F)F)C(F)(F)F)cc2cn(C3CC3)nc12 [Example 1002]
> 500 |  | > 200 |  | COc1cc(C(=O)NC[C@@](O)(c2cc3c(c(-c4cccc(Cl)c4F)n2)OC[C@]3(C)C(N)=O)C(F)(F)F)cc2cn(C3CC3)nc12 [Example 921]
< 500 |  | < 200 |  | Cc1cnc2c(OC(F)F)cc(C(=O)NC[C@](O)(c3cc4c(c(-c5ccc(F)c(Cl)c5)n3)OC[C@@]4(C(N)=O)C(F)F)C(F)(F)F)cc2c1 [Example 1009]
< 500 |  | < 200 |  | COc1cc(C(=O)NC[C@](O)(c2cc3c(c(-c4ccc(F)c(Cl)c4)n2)OC[C@@]3(C(N)=O)C(F)F)C2CC2)cc2cn(C(F)F)nc12 [Example 1045]
